The target in experiment [1] is c-Met protein in S114 cells (Homo sapiens (Human), UniProt P08581). The experiment is described as follows: S114 cell-based ELISA, phosphorylation of c-Met protein. The conditions noted are these: 30 min compound incubation, phospho-c-Met ELISA. On the procedure:
Cell-Based ELISA [Method] Use ELISA to measure the phosphorylation of c-Met protein in […] cells [Instrument] ENVISION plate reader of PerKinElmer […] [Procedure] […] cells are cultured in DMEM medium (containing 10% FBS). When cells reach 80% confluency, they are collected by trypsinization and centrifugation at 800 rpm for 5 min. The cells are re-suspended in DMEM and adjusted to a density of 500,000 cells/mL. A 96-well plate is pretreated with a solution of Firbronectin in PBS (5 μg/mL) at 100 μL per well for 2 hr. The cell suspension is split into the 96-well culture plate at 100 uL per well and incubated (37° C., 5% CO2) overnight. The capture antibody is diluted with 1/2 Tris-ammonium bicarbonate buffer (1:1000) and transferred into a 96-well absorption plate (70 μL per well) at 4° C. overnight. The solution is discarded and the plate is washed with blocking buffer, followed by adding blocking buffer (150 μL per well), and kept at room temperature for 1 hr. The medium in the 96-well culture plate is discarded and the plate is washed with DMEM (without FBS). Then 80 μL of DMEM (without FBS) and 20 μL of test compound solution at various concentrations in DMEM (without FBS) are added. The culture plate is kept in a culture incubator for 30 min (37° C., 5% CO2). The cell culture medium is discarded and the culture plate is washed with PBS, followed by adding lysis buffer (50 μL per well) and incubated at 4° C. for 20 min. The solution in the absorption plate is discarded and the plate is washed with binding buffer. To each well of the absorption plate is added binding buffer (50 μL) and lysate (40 μL) from the above culture plate; then the plate is incubated at room temperature for 2 hours. The culture medium is discarded and the plate is washed twice with binding buffer, followed by adding a solution of 1st antibody (diluted with binding buffer 1:1000, 100 μL per well) and incubated at 37° C. for 1 hr. The solution is discarded and the plate is washed twice with binding buffer. Then a solution of 2nd antibody is added (100 μL per well) and incubated at 37° C. for another hour. The medium is discarded and the plate is washed twice with binding buffer and once with PBS. To each well, 100 μL of A.B.T.S solution is added and incubated at 37° C. for 30 min. Then OD405 is analyzed on an ENVISION plate reader. This assay has a Minimum Significant Ratio (MSA) of 2-3. [Samples] All exemplified compounds and Crizotinib as the positive control [Data Analysis] Background (no cell lysate): 0.084 • Max (no test compound): 0.517 [formula] [Software] Use CBIS data analysis software to calculate IC50 values
(In general: An ELISA detects its analyte on a solid surface through an enzyme-linked reagent.)

The target in experiment [2] is c-Met kinase (1038-1346AA) (Homo sapiens (Human), UniProt P08581). The experiment is described as follows: c-Met in vitro kinase assay (Lance Ultra ULight-TK). It counts as biochemical. To be noted: c-Met kinase 12.5 nM, ATP 2.5 uM, 30° C.; read-out: c-Met Enzyme IC50. On the procedure: c-Met In Vitro Kinase Assay [Method] Use Lance@Ultra Ulight™-TK test kits from PerKinElmer to evaluate the inhibition of c-Met kinase by the compounds [Instrument] ENVISION plate reader of PerKinElmer […] Then ATP (final concentration 2.5 uM) and kinase substrate (final concentration 50 nM) are added. […] After 1 hr, the plate is read at 615 nm and 665 nm. The ratio of […] at 665 nm and 615 nm is calculated and used for the data analysis as follows. This assay has a Minimum Significant Ratio (MSA) of 2-3. [Samples] All exampled compounds and Crizotinib as the positive control [Data Analysis] Background—the ratio of 665 nm/615 nm (no enzyme):0.003285 • Max—the ratio of 665 nm/615 nm (no test compound):0.075356 [formula] [Software] Use CBIS data analysis software to calculate IC50 values
c-Met kinase (1038-1346AA), sequence (P08581 1038-1346): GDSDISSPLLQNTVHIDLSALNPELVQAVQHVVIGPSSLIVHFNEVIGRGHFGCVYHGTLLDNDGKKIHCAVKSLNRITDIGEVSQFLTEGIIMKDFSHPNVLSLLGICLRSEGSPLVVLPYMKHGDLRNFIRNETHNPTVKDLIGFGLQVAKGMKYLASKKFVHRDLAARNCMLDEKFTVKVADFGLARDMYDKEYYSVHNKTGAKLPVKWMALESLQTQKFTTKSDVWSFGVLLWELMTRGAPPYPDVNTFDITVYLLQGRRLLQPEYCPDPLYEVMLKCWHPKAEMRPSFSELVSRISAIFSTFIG

c-Met protein in S114 cells, sequence (P08581 25-1390): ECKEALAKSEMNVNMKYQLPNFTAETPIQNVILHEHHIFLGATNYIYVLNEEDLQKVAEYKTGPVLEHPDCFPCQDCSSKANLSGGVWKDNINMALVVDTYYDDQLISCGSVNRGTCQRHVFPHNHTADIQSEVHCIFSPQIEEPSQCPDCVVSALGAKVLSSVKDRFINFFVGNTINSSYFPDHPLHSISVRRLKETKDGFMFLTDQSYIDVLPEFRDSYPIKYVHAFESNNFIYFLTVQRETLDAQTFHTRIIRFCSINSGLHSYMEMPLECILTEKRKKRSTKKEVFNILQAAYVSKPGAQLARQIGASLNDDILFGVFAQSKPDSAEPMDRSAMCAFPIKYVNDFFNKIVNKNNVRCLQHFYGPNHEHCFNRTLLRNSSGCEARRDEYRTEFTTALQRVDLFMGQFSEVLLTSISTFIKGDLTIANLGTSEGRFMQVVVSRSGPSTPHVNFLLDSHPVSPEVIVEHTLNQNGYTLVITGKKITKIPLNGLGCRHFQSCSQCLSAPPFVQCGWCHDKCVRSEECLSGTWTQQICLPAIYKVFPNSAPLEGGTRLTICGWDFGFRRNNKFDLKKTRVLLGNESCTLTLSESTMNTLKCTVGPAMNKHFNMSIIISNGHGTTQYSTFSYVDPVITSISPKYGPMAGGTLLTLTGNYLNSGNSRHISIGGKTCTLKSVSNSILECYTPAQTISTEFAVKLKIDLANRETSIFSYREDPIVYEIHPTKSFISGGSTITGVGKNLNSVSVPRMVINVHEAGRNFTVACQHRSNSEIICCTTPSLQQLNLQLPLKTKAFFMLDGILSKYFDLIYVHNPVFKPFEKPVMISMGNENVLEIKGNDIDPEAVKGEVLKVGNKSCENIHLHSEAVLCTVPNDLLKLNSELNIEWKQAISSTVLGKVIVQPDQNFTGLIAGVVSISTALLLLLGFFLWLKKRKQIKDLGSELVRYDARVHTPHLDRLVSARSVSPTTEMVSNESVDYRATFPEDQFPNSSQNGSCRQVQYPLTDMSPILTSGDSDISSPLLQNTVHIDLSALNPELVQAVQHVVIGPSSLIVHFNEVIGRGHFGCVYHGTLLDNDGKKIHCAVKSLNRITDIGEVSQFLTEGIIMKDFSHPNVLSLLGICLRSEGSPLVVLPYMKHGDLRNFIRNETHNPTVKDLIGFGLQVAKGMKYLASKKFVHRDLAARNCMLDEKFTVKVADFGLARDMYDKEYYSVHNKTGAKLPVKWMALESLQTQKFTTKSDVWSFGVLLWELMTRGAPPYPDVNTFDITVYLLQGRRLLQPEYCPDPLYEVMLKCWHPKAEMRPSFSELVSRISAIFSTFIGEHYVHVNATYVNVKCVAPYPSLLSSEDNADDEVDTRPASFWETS

Turning to `CCNC(=O)c1ccc(-c2ccc3nnc(C(F)(F)c4ccc5nn(C)cc5c4F)n3n2)cc1F` [Example 3], the concentration for half-maximal inhibition (IC50) (commonly the concentration that inhibits the measured activity by half) in experiment [1] worked out at 71.5 nM; in experiment [2], 69.3 nM.

`CNS(=O)(=O)c1ccc(-c2ccc3nnc(C(F)(F)c4cc5cn(C)nc5cc4F)n3n2)cc1F` [Example 42]: the IC50 in experiment [1] is 406 nM; in experiment [2], 136 nM.

For `Cn1cc2c(F)c(C(F)(F)c3nnc4ccc(-c5cnn(CC6COCO6)c5)nn34)ccc2n1` (stereo not shown) [Example 16], the IC50 in experiment [1] worked out at 179 nM; in experiment [2] it was 247 nM.

Consider `Cn1cc2cc(C(F)(F)c3nnc4ccc(-c5cnn(C6CC6)c5)nn34)c(F)cc2n1` [Example 44], for which the IC50 in experiment [1] stood at 7.8 nM; in experiment [2], 31.6 nM.

With `CNC(=O)c1ccc(-c2ccc3nnc(C(F)(F)c4cc5cn(C)nc5cc4F)n3n2)cn1` [Example 31], the 50% inhibitory concentration (IC50) in experiment [1] was found to be 60.6 nM; in experiment [2], 81.4 nM.

In experiment [1], `Cn1cc2c(F)c(C(F)(F)c3nnc4ccc(-c5cncc(F)c5)nn34)ccc2n1` [Example 10] yielded an IC50 of 142 nM.

As to `Cn1cc2cc(C(F)(F)c3nnc4ccc(-c5cc(F)c6c(c5)CNC6=O)nn34)c(F)cc2n1` [Example 43], the IC50 is 35.2 nM in experiment [1] and 23.3 nM in experiment [2].

For `Fc1cc2n[nH]cc2cc1C(F)(F)c1nnc2ccc(-c3cnn(C4CC4)c3)nn12` [Example 50], the IC50 in experiment [1] was determined as 527 nM; in experiment [2], 1440 nM.

Take `COCCn1cc(-c2ccc3nnc(C(F)(F)c4ccc5nn(C)cc5c4F)n3n2)cn1` [Example 15]: the results for the IC50 in experiment [1] and in experiment [2] were 383 nM and 380 nM, respectively.

In the case of `CNC(=O)c1ccc(-c2ccc3nnc(C(F)(F)c4ccc5nn(C)cc5c4F)n3n2)cc1F` [Example 1, 4-(3-(Difluoro(4-fluoro-2-methyl-2H-indazol-5-yl)methyl)-[1,2,4]triazolo[4,3-b]pyridazin-6-yl)-2-fluoro-N-methylbenzamide], the IC50 in experiment [1] was 3.9 nM; in experiment [2] it was 48.8 nM.

On to `CC(C)NC(=O)c1ccc(-c2ccc3nnc(C(F)(F)c4cc5cn(C)nc5cc4F)n3n2)cc1F` [Example 23], for which the half-inhibitory concentration (IC50) in experiment [1] came out at 1.1 nM; in experiment [2], 41.6 nM.

On to `Cn1cc2c(F)c(C(F)(F)c3nnc4ccc(-c5ccc(S(N)(=O)=O)c(F)c5)nn34)ccc2n1` [Example 17], for which the half-inhibitory concentration (IC50) was found to be 55.6 nM in experiment [1] and 77.6 nM in experiment [2].

In turn, `CNC(=O)c1ccc(-c2ccc3nnc(C(F)(F)c4ccc5nn(C)cc5c4F)n3n2)cn1` [Example 8] displayed an IC50 in experiment [1] of 122 nM.

Take `Cn1cc2cc(C(F)(F)C3(Cl)NN=C4C=CC(c5cnn(C6CC6)c5)=CN43)c(F)cc2n1` (stereo not shown) [Example 45]: the IC50 in experiment [1] stood at 270 nM; in experiment [2], 274 nM.

As to `CN(C)C(=O)c1ccc(-c2ccc3nnc(C(F)(F)c4cc5cn(C)nc5cc4F)n3n2)cc1F` [Example 21], the IC50 in experiment [1] worked out at 262 nM; in experiment [2], 180 nM.

In the case of `Cc1cncc(-c2ccc3nnc(C(F)(F)c4cc5cn(C)nc5cc4F)n3n2)c1` [Example 32], the half-maximal inhibitory concentration (IC50) in experiment [1] is 37.7 nM; in experiment [2], 109 nM.

Take `O=C(NCCN1CCOCC1)n1cc2cc(C(F)(F)c3nnc4ccc(-c5cnn(C6CC6)c5)nn34)c(F)cc2n1` [Example 51]: in experiment [2], the concentration for half-maximal inhibition (IC50) was 4130 nM.

In the case of `Cn1cc2cc(C(F)(F)c3nnc4ccc(-c5ccc(C(=O)N6CCCC6)c(F)c5)nn34)c(F)cc2n1` [Example 25], the IC50 in experiment [1] was determined as 52.7 nM; in experiment [2], 125 nM.

As to `CN(C)C(=O)c1ccc(-c2ccc3nnc(C(F)(F)c4ccc5nn(C)cc5c4F)n3n2)cc1F` [Example 2], the results for the 50% inhibitory concentration (IC50) in experiment [1] and in experiment [2] were 103 nM and 148 nM, respectively.

As for `Cn1cc2cc(C(F)(F)c3nnc4ccc(-c5cnn(C6CC6)c5)cn34)c(F)cc2n1` [Example 46], the figures for the IC50 in experiment [1] and in experiment [2] were 139 nM and 159 nM, respectively.

As for `Cn1cc2cc(C(F)(F)c3nnc4ccc(-c5ccc(C(=O)N6CCOCC6)c(F)c5)nn34)c(F)cc2n1` [Example 26], the concentration for half-maximal inhibition (IC50) in experiment [1] was 299 nM; in experiment [2] it was 357 nM.

With `Cn1cc2cc(C(F)(F)c3nnc4ncc(-c5cnn(C6CC6)c5)cn34)c(F)cc2n1` [Example 47], the IC50 stood at 22 nM in experiment [1] and 38 nM in experiment [2].

In the case of `CNC(=O)c1ccc(-c2ccc3nnc(C(F)(F)c4cc5cn(C)nc5cc4F)n3n2)c(F)c1` [Example 18], the IC50 in experiment [1] turned out to be 206 nM; in experiment [2] it was 90.8 nM.

As to `CNC(=O)c1c(F)cc(-c2ccc3nnc(C(F)(F)c4cc5cn(C)nc5cc4F)n3n2)cc1F` [Example 28], the IC50 in experiment [1] was 14.2 nM; in experiment [2], 27.7 nM.

Take `Cn1cc2cc(C(F)(F)c3nnc4ccc(-c5cnn(CC6COCO6)c5)nn34)c(F)cc2n1` (stereo not shown) [Example 41]: the IC50 in experiment [1] amounted to 348 nM; in experiment [2], 127 nM.

`CC(C)NC(=O)c1ccc(-c2ccc3nnc(C(F)(F)c4cc5cn(C)nc5cc4F)n3n2)c(F)c1` [Example 20]: the concentration for half-maximal inhibition (IC50) in experiment [1] was 158 nM; in experiment [2], 137 nM.

`Cn1cc2cc(C(F)(F)c3nnc4ccc(-c5cnn(C6CCOC6)c5)nn34)c(F)cc2n1` (stereo not shown) [Example 39]: the 50% inhibitory concentration (IC50) in experiment [1] was determined as 204 nM; in experiment [2] it was 79.7 nM.

With `CC(C)n1cc(-c2ccc3nnc(C(F)(F)c4cc5cn(C)nc5cc4F)n3n2)cn1` [Example 38], the half-inhibitory concentration (IC50) in experiment [1] is 44.1 nM; in experiment [2] it was 82.9 nM.

In the case of `Cn1cc2c(F)c(C(F)(F)c3nnc4ccc(-c5cncc(Cl)c5)nn34)ccc2n1` [Example 11], 42 nM corresponded to half-maximal inhibition in experiment [1] (IC50).

For `CN1CCN(C(=O)c2ccc(-c3ccc4nnc(C(F)(F)c5cc6cn(C)nc6cc5F)n4n3)cc2F)CC1` [Example 27], the figures for the 50% inhibitory concentration (IC50) in experiment [1] and in experiment [2] were 324 nM and 148 nM, respectively.

For the molecule `CNC(=O)c1cc(-c2ccc3nnc(C(F)(F)c4cc5cn(C)nc5cc4F)n3n2)ccn1` [Example 30], the IC50 was 45 nM in experiment [1] and 51.8 nM in experiment [2].

As for `Cn1cc2cc(C(F)(F)c3nnc4ccc(-c5cncc(Cl)c5)nn34)c(F)cc2n1` [Example 34], the IC50 turned out to be 57.6 nM in experiment [1] and 53.2 nM in experiment [2].

For the molecule `Cn1cc2cc(C(F)(F)c3nnc4ccc(-c5cncc(F)c5)nn34)c(F)cc2n1` [Example 33], the half-inhibitory concentration (IC50) in experiment [1] was 210 nM; in experiment [2], 242 nM.

`Cn1cc2cc(C(F)(F)c3nnc4ccc(-c5ccc(NC(=O)C6CC6)c(F)c5)nn34)c(F)cc2n1` [Example 29]: the IC50 in experiment [1] is 7.9 nM; in experiment [2], 29.5 nM.

As for `CC(C)NC(=O)c1ccc(-c2ccc3nnc(C(F)(F)c4ccc5nn(C)cc5c4F)n3n2)cc1F` [Example 4], the 50% inhibitory concentration (IC50) in experiment [1] came to 2.6 nM; in experiment [2], 83.9 nM.

Regarding `Cn1cc(-c2ccc3nnc(C(F)(F)c4cc5cn(C)nc5cc4F)n3n2)cn1` [Example 37], the IC50 is 13.7 nM in experiment [1] and 50.7 nM in experiment [2].

`Cc1cncc(-c2ccc3nnc(C(F)(F)c4ccc5nn(C)cc5c4F)n3n2)c1` [Example 9] returned an IC50 in experiment [1] of 85 nM.

As for `COCCn1cc(-c2ccc3nnc(C(F)(F)c4cc5cn(C)nc5cc4F)n3n2)cn1` [Example 40], the values for the IC50 in experiment [1] and in experiment [2] were 134 nM and 203 nM, respectively.

As to `Cn1cc2c(F)c(C(F)(F)c3nnc4ccc(-c5ccc(C#N)nc5)nn34)ccc2n1` [Example 13], the figures for the IC50 in experiment [1] and in experiment [2] were 190 nM and 182 nM, respectively.

For the molecule `Cc1cc(-c2ccc3nnc(C(F)(F)c4cc5cn(C)nc5cc4F)n3n2)ccn1` [Example 36], the IC50 in experiment [1] was found to be 34 nM; in experiment [2], 113 nM.

For `Nc1nc2ccc(C(F)(F)c3nnc4ccc(-c5cnn(C6CC6)c5)nn34)cc2[nH]1` [Example 52], in experiment [2], the IC50 turned out to be 568 nM.

The record behind these values is patent publication US9695175B2, “Highly selective c-Met inhibitors as anticancer agents” (Crown Bioscience Inc. (Taiwan), priority 2012, dated 2017).
